Source: US20130012577A1, “PROCESS TO OBTAIN A STANDARDIZED EXTRACT OF QUERCETIN AND 3-O-METHYLQUERCETIN FROM INFLORESCENCES OF MACELA-DO-CAMPO, A COSMETIC, PHARMACEUTICAL AND VETERINARY COMPOSITION CONTAINING EXTRACT OF MACELA-DO-CAMPO, THE USE OF THIS EXTRACT AND THE METHOD OF APPLICATION OF THE AFORESAID EXTRACT” (priority 2009, published 2013)
In brackets after ≈: the same amount, converted by molar mass.

Tests used:
[1] = Antioxidant activity by DPPH; type: biochemical
Description: Tests were performed for the antioxidant activity by DPPH of the dried extract of macela-do-campo obtained by spray dryer. […] Trolox (a derivative of vitamin E sold by Hoffman LaRoche) was used as a standard of the aforesaid test and has its IC50 of antioxidant activity obtained with 0.005 mg/ml. Therefore, it can be concluded that the dried extract of macela-do-campo has extremely high antioxidant effectiveness, only 4 times less than Trolox.

[2] = tested on: smooth muscle of guinea pig corpus cavernosum; conditions: cited from earlier work
Propionibacterium acnes = experiment: Minimum Inhibitory Concentration (MIC), microplate dilution; type: cell-based; conditions: Cutibacterium acnes, anaerobiosis, 35° C., 96 hours, mg/ml of sample
Description: Tests were carried out for evaluating the minimum inhibitory concentrations of 3 batches of the dried extract of inflorescences of macela-do-campo produced in accordance with the process of the present invention against Propionibacterium acnes.
The procedure used for this test is the following:
Preparation of inoculum: the microorganism to be used in testing was replicated to a glass flask containing 10 ml of sterilized culture medium broth (TSB); • the flaks were incubated at 35° C.+/−2° C. for 24 hours; • the above procedure was repeated for 2 consecutive days; • 100 microliters of TSB broth were distributed in a microplate with the exception of column 1; • column 1 was inoculated with 200 microliters of the sample to be tested previously prepared and solubilized; • dilutions were carried out by transferring 100 microliters of column 1 to column 2 and 100 microliters of column 2 to column 3 and thus successively until column 10. […] The plate in which Propionibacterium acnes was inoculated was incubated under anaerobosis at 35° C.+/−2° C. for 96 hours; • after the incubation period the reading was carried out, thus observing the turbidity of the wells; • the samples were weighed and diluted in the vehicle ethanol 96° GL/distilled water (1:1) according to the weights and volumes below: […]

PDE 5A = PDE 5A (Homo sapiens, UniProt O76074); conditions: cited from earlier work
P. acnes = experiment: Bioautography of Propionibacterium acnes (HPTLC separation, inoculum overlay); type: cell-based; conditions: incubation 72 hours, revealed with TTC
Description: Bioautographic trials were conducted to determine the classes of the compounds present in the extract of inflorescence of Achyrocline satureioides that perform the anti-bacterial activity against Propionibacterium acnes. The bioautography consists of the chromatographic separation of the compounds by HPTLC and the subsequent application of the inoculation to the culture medium over the chromatographic plate.

[3] = tested on: smooth muscle of guinea pig tracheas; conditions: guinea pig tracheas precontracted with histamine, carbachol, KCl and forskolin; cited from earlier work
PDE4 = conditions: cited from earlier work
PDE3 = conditions: cited from earlier work

| Structure (SMILES) | IC50 of the antioxidant activity [1] [µg/mL] | relaxant activity in smooth muscle of corpus cavernosum [2] | MIC (Propionibacterium acnes) [µg/mL] | IC50 (PDE 5A) [µM] | anti-microbial activity in bioautography (inhibition halos) (P. acnes) | relaxation of smooth muscle of tracheas [3] | IC50 (PDE4) [µM] | IC50 (PDE3) [nM] |
| --- | --- | --- | --- | --- | --- | --- | --- | --- |
| Cc1c(C)c2c(c(C)c1O)CCC(C)(C(=O)O)O2 (centres unmarked) [Trolox] | 5 | – | – | – | – | – | – | – |
| O=c1c(O)c(-c2ccc(O)c(O)c2)oc2cc(O)cc(O)c12 [quercetin] | – | show the same relaxant activity | 36.4 (≈ 120 µM) | 1.9 | main ingredients responsible for the anti-microbial activity | – | – | – |
| COc1c(-c2ccc(O)c(O)c2)oc2cc(O)cc(O)c2c1=O [3-O-methylquercetin] | – | show the same relaxant activity | – | 86.9 | main ingredients responsible for the anti-microbial activity | capable of provoking the relaxation of the smooth muscle | 28.5 | 1600 |
